Results taken from patent publication US20080051387A1, “TETRAHYDROPYRIDO[3,4-D]PYRIMIDINES AND RELATED ANALOGUES” (priority 2006, published 2008).

Each molecule was assayed against T1, chimeric human H3 receptor (Homo sapiens, UniProt Q9Y5N1) (assay: Chimeric human H3 receptor screening GTP binding assay (inhibition of histamine-stimulated GTP-gamma35S binding, Example 8)). Conditions: symbol ! in Ki; test compound 4 μM, 1 μM histamine; read-out: percent inhibition of agonist-induced GTP-gammaS binding to H3.
T1 construct: rat Galpha-i2 (Gnai2, rat); made in house; host or cells: Sf9 insect cells (baculovirus); P2 membranes
Type: biochemical
Method: This Example illustrates a representative screening assay for evaluating inhibition of histamine-stimulated GTP-gamma^35S binding. Such GTP binding activity can be used to identify H3 antagonists and inverse agonists. A compound analyzed in this assay is referred to herein as a “test compound,” and the initial identification of antagonists and inverse agonists is performed using a test compound concentration of 4 μM.
Four independent baculoviral stocks (one directing the expression of the chimeric human H3 receptor and three directing the expression of each of the three subunits of a heterotrimeric G-protein) are used to infect a culture of Sƒ9 cells as described above. P2 membranes are prepared as described above, and are resuspended by Dounce homogenization (tight pestle) in GTP binding assay buffer (50 mM Tris pH 7.4, 120 mM NaCl, 5 mM MgCl2, 2 mM EGTA, 1 mg/ml BSA, 0.2 mg/ml bacitracin, 0.02 mg/ml aprotinin, 0.01 mg/ml saponin, 10 μM GDP) and added to assay tubes at a concentration of 35 μg protein/reaction tube. Non-radiolabeled test compounds are added to separate reactions at a concentration of 4 μM along with 1 μM histamine (agonist). Reactions are initiated by the addition of 125 pM GTP-gamma^35S with a final assay volume of 0.20 ml.
After a 60-min incubation at room temperature, reactions are terminated by vacuum filtration over GF/C filters (pre-soaked in 50 mM Tris pH 7.4, 120 mM NaCl plus 0.1% BSA) followed by washing with ice-cold buffer (50 mM Tris pH 7.4, 120 mM NaCl). The amount of receptor-bound (and thereby membrane-bound) GTP-gamma^35S is determined by measuring the bound radioactivity, preferably by liquid scintillation spectrometry of the washed filters. Non-specific binding is determined using 10 uM GTP-gammaS and typically represents less than 5 percent of total binding. After subtraction of non-specific binding, data is expressed as percent inhibition of 1 μM histamine signal.
Neutral antagonists are those test compounds that reduce the histamine-stimulated GTP binding activity towards, but not below, baseline levels. In contrast, in the absence of added histamine, inverse agonists reduce the GTP binding activity of the receptor-containing membranes below baseline. Any test compound that elevates GTP binding activity above baseline in the absence of added histamine in this assay is defined as having agonist activity.

T1 sequence (Q9Y5N1 with tags, fused parts or gaps): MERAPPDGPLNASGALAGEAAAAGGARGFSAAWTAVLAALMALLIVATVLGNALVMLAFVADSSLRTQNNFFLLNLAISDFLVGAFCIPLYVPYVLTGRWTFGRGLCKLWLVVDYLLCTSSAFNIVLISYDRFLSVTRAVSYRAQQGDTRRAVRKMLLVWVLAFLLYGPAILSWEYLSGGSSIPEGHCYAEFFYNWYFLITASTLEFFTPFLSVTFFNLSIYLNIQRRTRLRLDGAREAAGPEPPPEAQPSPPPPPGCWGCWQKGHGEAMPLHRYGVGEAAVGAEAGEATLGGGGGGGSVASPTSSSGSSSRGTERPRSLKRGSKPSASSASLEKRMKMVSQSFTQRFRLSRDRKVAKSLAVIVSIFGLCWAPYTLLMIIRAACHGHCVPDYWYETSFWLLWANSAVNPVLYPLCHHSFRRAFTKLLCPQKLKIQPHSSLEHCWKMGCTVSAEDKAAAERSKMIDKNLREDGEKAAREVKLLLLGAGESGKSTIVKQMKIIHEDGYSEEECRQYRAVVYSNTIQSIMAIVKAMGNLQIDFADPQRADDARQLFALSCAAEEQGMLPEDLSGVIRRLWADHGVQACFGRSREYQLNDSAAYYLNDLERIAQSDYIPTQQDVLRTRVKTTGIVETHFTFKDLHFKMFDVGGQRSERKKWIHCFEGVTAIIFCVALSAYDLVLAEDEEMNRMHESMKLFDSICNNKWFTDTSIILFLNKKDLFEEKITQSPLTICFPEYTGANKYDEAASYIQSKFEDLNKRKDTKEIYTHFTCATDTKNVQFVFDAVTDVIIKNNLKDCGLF

SMILES | inhibition at 4 µM
Cc1cccc(C(=O)N2CCc3c(ncnc3N3CCN(C4CCC4)CC3)C2)c1 [Compound 23, 4-(4-cyclobutylpiperazin-1-yl)-7-(3-methylbenzoyl)-5,6,7,8-tetrahydropyrido[3,4-d]pyrimidine] | ≥ 90%
Cc1ccc(C(=O)N2CCc3c(ncnc3N3CCN(C4CCC4)CC3)C2)cc1 [Compound 24, 4-(4-cyclobutylpiperazin-1-yl)-7-(4-methylbenzoyl)-5,6,7,8-tetrahydropyrido[3,4-d]pyrimidine] | ≥ 90%
COc1cccc(C(=O)N2CCc3c(ncnc3N3CCN(C4CCC4)CC3)C2)c1 [Compound 26, 4-(4-cyclobutylpiperazin-1-yl)-7-(3-methoxybenzoyl)-5,6,7,8-tetrahydropyrido[3,4-d]pyrimidine] | ≥ 90%
COc1ccc(C(=O)N2CCc3c(ncnc3N3CCN(C4CCC4)CC3)C2)cc1 [Compound 27, 4-(4-cyclobutylpiperazin-1-yl)-7-(4-methoxybenzoyl)-5,6,7,8-tetrahydropyrido[3,4-d]pyrimidine] | ≥ 90%
O=C(c1cccc(F)c1)N1CCc2c(ncnc2N2CCN(C3CCC3)CC2)C1 [Compound 29, 4-(4-cyclobutylpiperazin-1-yl)-7-(3-fluorobenzoyl)-5,6,7,8-tetrahydropyrido[3,4-d]pyrimidine] | ≥ 90%
O=C(c1ccc(F)cc1)N1CCc2c(ncnc2N2CCN(C3CCC3)CC2)C1 [Compound 30, 4-(4-cyclobutylpiperazin-1-yl)-7-(4-fluorobenzoyl)-5,6,7,8-tetrahydropyrido[3,4-d]pyrimidine] | ≥ 90%
O=C(c1ccco1)N1CCc2c(ncnc2N2CCN(C3CCC3)CC2)C1 [Compound 32, 4-(4-cyclobutylpiperazin-1-yl)-7-(2-furoyl)-5,6,7,8-tetrahydropyrido[3,4-d]pyrimidine] | ≥ 90%
O=C(c1ccoc1)N1CCc2c(ncnc2N2CCN(C3CCC3)CC2)C1 [Compound 33, 4-(4-cyclobutylpiperazin-1-yl)-7-(3-furoyl)-5,6,7,8-tetrahydropyrido[3,4-d]pyrimidine] | ≥ 90%
O=C(c1cccnc1)N1CCc2c(ncnc2N2CCN(C3CCC3)CC2)C1 [Compound 34, 4-(4-cyclobutylpiperazin-1-yl)-7-(pyridin-3-ylcarbonyl)-5,6,7,8-tetrahydropyrido[3,4-d]pyrimidine] | ≥ 90%
O=C(c1ccccn1)N1CCc2c(ncnc2N2CCN(C3CCC3)CC2)C1 [Compound 35, 4-(4-cyclobutylpiperazin-1-yl)-7-(pyridin-2-ylcarbonyl)-5,6,7,8-tetrahydropyrido[3,4-d]pyrimidine] | ≥ 90%
O=C(c1ccno1)N1CCc2c(ncnc2N2CCN(C3CCC3)CC2)C1 [Compound 36, 4-(4-cyclobutylpiperazin-1-yl)-7-(isoxazol-5-ylcarbonyl)-5,6,7,8-tetrahydropyrido[3,4-d]pyrimidine] | ≥ 90%
Cc1noc(C)c1C(=O)N1CCc2c(ncnc2N2CCN(C3CCC3)CC2)C1 [Compound 37, 4-(4-cyclobutylpiperazin-1-yl)-7-[(3,5-dimethylisoxazol-4-yl)carbonyl]-5,6,7,8-tetrahydropyrido[3,4-d]pyrimidine] | ≥ 90%
Cc1ncccc1C(=O)N1CCc2c(ncnc2N2CCN(C3CCC3)CC2)C1 [Compound 38, 4-(4-cyclobutylpiperazin-1-yl)-7-[(2-methylpyridin-3-yl)carbonyl]-5,6,7,8-tetrahydropyrido[3,4-d]pyrimidine] | ≥ 90%
Cc1cc(C(=O)N2CCc3c(ncnc3N3CCN(C4CCC4)CC3)C2)nn1C [Compound 39, 4-(4-cyclobutylpiperazin-1-yl)-7-[(1,5-dimethyl-1H-pyrazol-3-yl)carbonyl]-5,6,7,8-tetrahydropyrido[3,4-d]pyrimidine] | ≥ 90%

Other lines, results leading:

inhibition at 4 µM | SMILES
≥ 90% | CCN(CCN(C)C)c1ncnc2c1CCN(Cc1ccccc1)C2 [Compound 14, N-(7-benzyl-5,6,7,8-tetrahydropyrido[3,4-d]pyrimidin-4-yl)-N-ethyl-N′,N′-dimethylethane-1,2-diamine]
≥ 90% | CCN(CC)C1CCN(c2ncnc3c2CCN(Cc2ccccc2)C3)C1 (centres unmarked) [Compound 15, 1-(7-benzyl-5,6,7,8-tetrahydropyrido[3,4-d]pyrimidin-4-yl)-N,N-diethylpyrrolidin-3-amine]
≥ 90% | c1ccc(CN2CCc3c(ncnc3N3CCN(C4CCCC4)CC3)C2)cc1 [Compound 16, 7-benzyl-4-(4-cyclopentylpiperazin-1-yl)-5,6,7,8-tetrahydropyrido[3,4-d]pyrimidine]
≥ 90% | c1ccc(CN2CCc3c(ncnc3N3CCC(N4CCCCC4)CC3)C2)cc1 [Compound 17, 1′-(7-benzyl-5,6,7,8-tetrahydropyrido[3,4-d]pyrimidin-4-yl)-1,4′-bipiperidine]
≥ 90% | c1ccc(CN2CCc3c(ncnc3N3CCC(N4CCCCCC4)CC3)C2)cc1 [Compound 18, 4-(4-azepan-1-ylpiperidin-1-yl)-7-benzyl-5,6,7,8-tetrahydropyrido[3,4-d]pyrimidine]
≥ 90% | c1ccc(CN2CCc3c(ncnc3N3CCN(CCCN4CCCC4)CC3)C2)cc1 [Compound 19, 7-benzyl-4-[4-(3-pyrrolidin-1-ylpropyl)piperazin-1-yl]-5,6,7,8-tetrahydropyrido[3,4-d]pyrimidine]
≥ 90% | CCN(CC)CCCN1CCN(c2ncnc3c2CCN(Cc2ccccc2)C3)CC1 [Compound 20, 3-[4-(7-benzyl-5,6,7,8-tetrahydropyrido[3,4-d]pyrimidin-4-yl)piperazin-1-yl]-N,N-diethylpropan-1-amine]
≥ 90% | c1ccc(CN2CCc3c(ncnc3N3CCN(CCCN4CCCCC4)CC3)C2)cc1 [Compound 21, 7-benzyl-4-[4-(3-piperidin-1-ylpropyl)piperazin-1-yl]-5,6,7,8-tetrahydropyrido[3,4-d]pyrimidine]
≥ 90% | O=C(c1ccccc1)N1CCc2c(ncnc2N2CCN(C3CCC3)CC2)C1 [Compound 22, 7-benzoyl-4-(4-cyclobutylpiperazin-1-yl)-5,6,7,8-tetrahydropyrido[3,4-d]pyrimidine]
≥ 90% | Cc1ccccc1C(=O)N1CCc2c(ncnc2N2CCN(C3CCC3)CC2)C1 [Compound 25, 4-(4-cyclobutylpiperazin-1-yl)-7-(2-methylbenzoyl)-5,6,7,8-tetrahydropyrido[3,4-d]pyrimidine]
≥ 90% | COc1ccccc1C(=O)N1CCc2c(ncnc2N2CCN(C3CCC3)CC2)C1 [Compound 28, 4-(4-cyclobutylpiperazin-1-yl)-7-(2-methoxybenzoyl)-5,6,7,8-tetrahydropyrido[3,4-d]pyrimidine]
≥ 90% | O=C(c1ccccc1F)N1CCc2c(ncnc2N2CCN(C3CCC3)CC2)C1 [Compound 31, 4-(4-cyclobutylpiperazin-1-yl)-7-(2-fluorobenzoyl)-5,6,7,8-tetrahydropyrido[3,4-d]pyrimidine]

Same assay, conditions: test compound 4 μM, 1 μM histamine; read-out: percent inhibition of agonist-induced GTP-gammaS binding to H3

inhibition at 4 µM | SMILES
≥ 90% | c1ccc(CN2CCc3c(ncnc3N3CCN(C4CCC4)CC3)C2)cc1 [Compound 1, 7-Benzyl-4-(4-cyclobutylpiperazin-1-yl)-5,6,7,8-tetrahydropyrido[3,4-d]pyrimidine]
≥ 90% | c1nc2c(c(N3CCN(C4CCC4)CC3)n1)CCN(CC1CCCCC1)C2 [Compound 2, 4-(4-Cyclobutylpiperazin-1-yl)-7-cyclohexylmethyl-5,6,7,8-tetrahydropyrido[3,4-d]pyrimidine]
≥ 90% | CC(=O)c1ccc(N2CCc3c(ncnc3N3CCN(C4CCC4)CC3)C2)cc1 [Compound 3, 1-{4-[4-(4-Cyclobutylpiperazin-1-yl)-5,8-dihydropyrido[3.4-d]pyrimidin-7(6H)-yl]phenyl}Ethanone]
≥ 90% | O=C(c1ccc(F)cc1)N1CCc2cnc(N3CCN(C4CCC4)CC3)nc2CC1 [Compound 10, [2-(4-Cyclobutyl-piperazin-1-yl)-5,6,8,9-tetrahydro-pyrimido[4.5-d]azepin-7-yl]-(4-fluoro-phenyl)-methanone]
≥ 90% | CC(=O)c1ccc(N2CCc3cnc(N4CCN(C5CCC5)CC4)nc3CC2)cc1 [Compound 11, 1-{4-[2-(4-Cyclobutyl-piperazin-1-yl)-5,6,8,9-tetrahydro-pyrimido[4.5-d]azepin-7-yl]-phenyl}-ethanone]
≥ 90% | O=S(=O)(c1ccccc1)N1CCc2cnc(N3CCN(C4CCC4)CC3)nc2CC1 [Compound 12, 7-Benzenesulfonyl-2-(4-Cyclobutyl-piperazin-1-yl)-6,7,8,9-tetrahydro-5H-pyrimido[4.5-d]azepine]
